Source: patent publication US20140221427A1, “ISOTOPOLOGUES OF POMALIDOMIDE” (CELGENE CORPORATION, priority 2011, published 2014)
Where two headings read alike, the source gives them in different places.

Experiments:
[1] = system: TNFα; experiment: Inhibition of TNFα in LPS-stimulated hPBMC (ELISA); assay type: cell-based; details: LPS-stimulated human PBMC, TNFα by ELISA; read-out: IC50s for TNFα
Protocol: Human peripheral blood mononuclear cells (hPBMC) from normal donors are obtained by Ficoll Hypaque (Pharmacia, Piscataway, N.J., USA) density centrifugation. Cells are cultured in RPMI 1640 (Life Technologies, Grand Island, N.Y., USA) supplemented with 10% AB+human serum (Gemini Bio-products, Woodland, Calif., USA), 2 mM L-glutamine, 100 U/ml penicillin, and 100 μg/ml streptomycin (Life Technologies).
PBMC (2×10^5 cells) are plated in 96-well flat-bottom Costar tissue culture plates (Corning, N.Y., USA) in triplicate. Cells are stimulated with LPS (from Salmonella abortus equi, Sigma cat. no. L-1887, St. Louis, Mo., USA) at 1 ng/ml final in the absence or presence of compounds. Compounds provided herein are dissolved in DMSO (Sigma) and further dilutions are done in culture medium immediately before use. The final DMSO concentration in all assays can be about 0.25%. Compounds are added to cells 1 hour before LPS stimulation. Cells are then incubated for 18-20 hours at 37° C. in 5% CO2, and supernatants are then collected, diluted with culture medium and assayed for TNFα levels by ELISA (Endogen, Boston, Mass., USA). IC50s are calculated using non-linear regression, sigmoidal dose-response, constraining the top to 100% and bottom to 0%, allowing variable slope (GraphPad Prism v3.02).
Potencies of racemic, (R)-, and (S)-pomalidomide in inhibiting TNFα were measured using procedures substantially similar to those described in Section 5.4 above.

[2] = system: IL-2; experiment: Production of IL-2 in anti-CD3-stimulated purified T cells (ELISA); assay type: cell-based, human; details: T cells from PBMC on anti-CD3 (OKT3) coated plates, IL-2 by ELISA, read-out: EC50s for IL-2
Protocol: PBMC are depleted of adherent monocytes by placing 1×10^8 PBMC in 10 ml complete medium (RPMI 1640 supplemented with 10% heat-inactivated fetal bovine serum, 2 mM L-glutamine, 100 U/ml penicillin, and 100 μg/ml streptomycin) per 10 cm tissue culture dish, in 37° C., 5% CO2 incubator for 30-60 minutes. The dish is rinsed with medium to remove all non-adherent PBMC. T cells are purified by negative selection using the following antibody (Pharmingen) and Dynabead (Dynal) mixture for every 1×10^8 non-adherent PBMC: 0.3 ml Sheep anti-mouse IgG beads, 15 μl anti-CD16, 15 μl anti-CD33, 15 μl anti-CD56, 0.23 ml anti-CD19 beads, 0.23 ml anti-HLA class II beads, and 56 μl anti-CD14 beads. The cells and bead/antibody mixture is rotated end-over-end for 30-60 minutes at 4° C. Purified T cells are removed from beads using a Dynal magnet. Typical yield is about 50% T cells, 87-95% CD3′ by flow cytometry.
Tissue culture 96-well flat-bottom plates are coated with anti-CD3 antibody OKT3 at 5 μg/ml in PBS, 100 μl per well, incubated at 37° C. for 3-6 hours, then washed four times with complete medium 100 μl/well just before T cells are added. Compounds are diluted to 20 times of final in a round bottom tissue culture 96-well plate. Final concentrations are about 10 μM to about 0.00064 μM. A 10 mM stock of compounds provided herein is diluted 1:50 in complete for the first 20× dilution of 200 μM in 2% DMSO and serially diluted 1:5 into 2% DMSO. Compound is added at 10 μl per 200 μl culture, to give a final DMSO concentration of 0.1%. Cultures are incubated at 37° C., 5% CO2 for 2-3 days, and supernatants analyzed for IL-2 by ELISA (R&D Systems). […]
In addition, potencies of racemic, (R)-, and (S)-pomalidomide in promoting the production of IL-2 were measured using procedures substantially similar to those described in Section 5.5 above.

| IC50 [1] | EC50 ([2]; Homo sapiens, T-cell) | EC50 [2] | SMILES |
| --- | --- | --- | --- |
| 13 nM | 10.3 nM |  | Nc1cccc2c1C(=O)N(C1CCC(=O)NC1=O)C2=O (racemic) [racemic pomalidomide, 4-amino-2-(2,6-dixopiperidin-3-yl)isoindoline-1,3-dione] |
| 93.3 nM |  | 57.2 nM | Nc1cccc2c1C(=O)N([C@@H]1CCC(=O)NC1=O)C2=O [(R)-pomalidomide] |
| 3.9 nM |  | 12.4 nM | Nc1cccc2c1C(=O)N([C@H]1CCC(=O)NC1=O)C2=O [(S)-pomalidomide] |
